Assay results reported in patent US4897490A, “Antihypercholesterolemic tetrazole compounds” (Bristol-Meyers Company, priority 1988, dated 1990).
Like-named read-outs stand apart in the source and are kept apart here.

Key:
[1] = system: Isolated Hepatocyte Cholesterol Biosynthesis; assay: Test B: Isolated Hepatocyte Cholesterol Biosynthesis Assay; format: cell-based, male Wistar rats; conditions: isolated rat hepatocytes, 10 min preincubation, 60 minutes at 37°, incorporation into sterols, read-out: Inhibition of Isolated Hepatocyte Cholesterol Biosynthesis IC50
Procedure: Test B: Isolated Hepatocyte Cholesterol Biosynthesis Assay:
Intact parenchymal hepatocytes were isolated from male Wistar rats (180-280 g) fed cholestyramine-containing or normal diet, using the collagenase perfusion method essentially as described by Seglen, in Methods in Cell Biology (D. Prescott, ed.) Vol. 13, pp. 29-83, Academic Press, New York (1976). Cell preparations were used only when viability (trypan blue exclusion) exceeded 90%. Cholesterol biosynthesis was determined as the incorporation by hepatocytes of ^3 H from [^3 H]-water into total (cellular plus medium) 3β-hydroxy sterols as per Ingebritsen, et al., J. Biol. Chem., 254, 9986-9989 (1979). Hepatocyte sterols and lipids were isolated by a modification of the methods described by Kates, in Techniques in Lipidology, (M. Kates, ed.), pp. 349, 360-363, North Holland Publ. Co., Amsterdam, 1972. […] The ^3 H-labelled sterols are quantified by liquid scintillation and corrected for counting efficiency. […]
Cells were preincubated for 10 minutes with or without aliquots of test compounds added as water solutions of sodium salts or as dimethylsulfoxide solutions of lactones. […] The IC50 for inhibition of sterol synthesis by test compounds which is shown in Table 2 was calculated from the linear regression curve of % inhibition (compared to controls) vs. log concentration using at least 4 concentrations of inhibitor. […]

[2] = system: de novo biosynthesis of cholesterol; assay: Test C: In Vivo Acute Cholesterol Biosynthesis Inhibition in Rats; set-up: species or system male Wistar rats; conditions: Rattus norvegicus, 1 h
Procedure: Test C: In Vivo Acute Cholesterol Biosynthesis Inhibition in Rats:
Male Wistar rats (160-200 g, housed 2 per cage) were maintained on normal diet (Purina Rat Chow and water, ad libitum) for at least 7 days on a reversed lighting schedule (7:00 a.m. to 5:00 p.m. dark). Food was removed 15 hours prior to dosing. Compounds were administered at 8:00 a.m. by intragastric intubation using 0.5-1.0 mL of water or propylene glycol solutions of sodium salts, lactones, or esters of the test compounds. Controls received equal volumes of the vehicle.
Thirty minutes after receiving the test substances, rats were injected intraperitoneally with 0.9 mL of 0.9% NaCl containing approximately 120 μCi per kg body weight of sodium [1-^14 C] acetate (1-3 mCi/mmol). After a 60 minute incorporation period, rats were sacrificed and liver and blood samples were obtained. Aliquots of plasma (1.0 mL) obtained by centrifugation of heparin+EDTA-treated blood, and aliquots of liver homogenates (equivalent to 0.50 g liver wet weight) were taken for determination of radiolabeled 3β-hydroxy sterols. Sterol isolation for the liver samples followed the method of Kates as described above for the hepatocyte procedure (Test B) while the plasma samples were directly saponified followed by isolation of the digitonin-precipitable sterols. ^14 C-labelled sterols were quantified by liquid scintillation counting (efficiency corrected). Mean percent inhibition of ^14 C incorporated into liver and into plasma cholesterol were calculated for groups of treated animals and compared to mean values for controls conducted simultaneously.
Therefore, Test C provides information on the ability of test substances to suppress the de novo biosynthesis of cholesterol in vivo in rats with oral dosing.

[3] = molecular target: T1, rat liver HMG-CoA reductase (Rattus norvegicus, UniProt P51639); assay: Test A: In Vitro Inhibition of Microsomal HMG-CoA Reductase; format: biochemical; conditions: microsomal rat liver enzyme; [3-14C]-HMG-CoA 0.33 mM, NADPH 3.0 mM; pH 7.2
T1 construct: from tissue; host or cells: rat liver microsomes
T1 sequence (P51639 1-887): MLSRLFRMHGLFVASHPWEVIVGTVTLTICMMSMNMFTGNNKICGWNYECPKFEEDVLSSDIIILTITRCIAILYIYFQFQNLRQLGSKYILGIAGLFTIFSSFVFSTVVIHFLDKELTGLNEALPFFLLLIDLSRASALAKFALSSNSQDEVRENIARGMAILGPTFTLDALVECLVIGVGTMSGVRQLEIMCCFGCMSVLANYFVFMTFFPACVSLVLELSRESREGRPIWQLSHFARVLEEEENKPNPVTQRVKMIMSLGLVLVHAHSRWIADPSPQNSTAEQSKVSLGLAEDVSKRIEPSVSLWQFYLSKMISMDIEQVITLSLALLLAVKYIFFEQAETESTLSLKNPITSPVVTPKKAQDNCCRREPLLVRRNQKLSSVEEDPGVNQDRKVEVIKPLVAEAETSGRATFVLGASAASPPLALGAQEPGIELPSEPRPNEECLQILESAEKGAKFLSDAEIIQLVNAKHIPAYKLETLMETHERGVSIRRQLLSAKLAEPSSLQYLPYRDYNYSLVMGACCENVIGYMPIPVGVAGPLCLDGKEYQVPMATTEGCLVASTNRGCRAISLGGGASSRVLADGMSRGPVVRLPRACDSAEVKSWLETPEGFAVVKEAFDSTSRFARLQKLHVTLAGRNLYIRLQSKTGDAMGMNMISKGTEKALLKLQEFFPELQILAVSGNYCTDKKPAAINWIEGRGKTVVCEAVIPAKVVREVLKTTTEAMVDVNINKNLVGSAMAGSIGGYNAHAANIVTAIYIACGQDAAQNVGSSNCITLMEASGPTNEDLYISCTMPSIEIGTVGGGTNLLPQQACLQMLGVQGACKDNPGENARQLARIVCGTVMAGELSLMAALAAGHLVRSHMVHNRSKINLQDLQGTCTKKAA
Procedure: Test A: In Vitro Inhibition of Microsomal HMG-CoA Reductase:
The intact, fully activated microsomal form of rat liver HMG-CoA reductase (subunit MW ca 100,000 daltons) was prepared as described by Parker, et al., Biochem. Biophys. Res. Commun., 125, 629-635 (1984), and used as the source of enzyme for assays. HMG-CoA reductase activity was determined essentially by the method of Shapiro, et al., Biochem. Biophys. Acta., 370, 369-377 (1974), with modifications as described by Ingebritsen and Gibson, Meth. Enzymol. 71, 486-497 (1981) with the exception that the internal standard ^3 H-mevalonolactone is added after termination of the assay. In this procedure, the enzyme is assayed by measuring the formation of product, ^14 C-mevalonate, from the substrate, [3-^14 C]-HMG-CoA, in the presence of NADPH. The ^14 C-mevalonate is converted to its lactone and isolated by silica thin-layer chromatography (Whatman LK5D, developed in 50:50 benzene:acetone) in the presence of ^3 H-mevalonolactone as an internal standard. Assays were conducted under conditions in which product formation was linear with respect to time and enzyme concentration.
To measure reductase inhibition, test compounds dissolved in water or dimethylsulfoxide and diluted in buffer A (50 mM imidazole-HCl, 250 mM NaCl, 1 mM EDTA, 1 mM EGTA, 5 mM DTT, 20 μM leupeptin, pH=7.2) were incubated with aliquots of microsomes (80-160 μg protein in buffer A) followed by addition of d,1-[3-^14 C]-HMG-CoA (0.33 mM, 2.0 dpm/picomole) and NADPH (3.0 mM). The 50 percent inhibitory concentration (IC50) for each compound in Table 1 was calculated from the linear regression line of the percent decrease (from control) in enzyme activity vs. log concentration of inhibitor, determined using at least 4 dilutions of each test compound assayed in duplicate.

IC50 [3] [nM]	SMILES	IC50 [1] [nM]	ED50 ([2]; oral (intragastric), 14C-acetate incorporation 60 minutes, read-out: ED50 value (reference agent, tissue not stated)) [mg/kg]	ED50 ([2]; read-out: 50% Inhibitory Dose (ED50), liver cholesterol, oral (intragastric), liver, 14C-acetate incorporation 60 minutes) [mg/kg]	ED50 ([2]; read-out: 50% Inhibitory Dose (ED50), plasma cholesterol, oral (intragastric), plasma, 14C-acetate incorporation 60 minutes) [mg/kg]
37 ± 10	Cn1nnnc1C(/C=C/[C@@H](O)C[C@@H](O)CC(=O)O)=C(c1ccc(F)cc1)c1ccc(F)cc1 (relative stereo) [Example 12, Sodium (±)-erythro-9,9-bis(4-fluorophenyl)-3,5-dihydroxy-8-(1-methyl-1H-tetrazol-5-yl)-6,8-nonadionate]	23 ± 11	–	0.08	0.08
1090 ± 290	Cn1nnnc1C(/C=C/[C@@H]1C[C@@H](O)CC(=O)O1)=C(c1ccc(F)cc1)c1ccc(F)cc1 (relative stereo) [Example 13, Trans-6-[4,4-bis(4-fluorophenyl)-3-(1-methyl-1H-tetrazol-5-yl)-1,3-butadienyl]-tetrahydro-4-hydroxy-2H-pyran-2-one]	–	–	–	–
5700	Cn1nnnc1C(/C=C/C=C/[C@@H](O)C[C@@H](O)CC(=O)O)=C(c1ccc(F)cc1)c1ccc(F)cc1 (relative stereo) [Example 15, Sodium (±)-erythro-11,11-bis(4-fluorophenyl)-3,5-dihydroxy-10-(1-methyl-1H-tetrazol-5-yl)-6,8,10-undecatrienoate]	–	–	–	–

Second part, the compound before the results:

SMILES	IC50 [3] [nM]	IC50 [1] [nM]	ED50 ([2]; oral (intragastric), 14C-acetate incorporation 60 minutes, read-out: ED50 value (reference agent, tissue not stated)) [mg/kg]	ED50 ([2]; read-out: 50% Inhibitory Dose (ED50), liver cholesterol, oral (intragastric), liver, 14C-acetate incorporation 60 minutes) [mg/kg]	ED50 ([2]; read-out: 50% Inhibitory Dose (ED50), plasma cholesterol, oral (intragastric), plasma, 14C-acetate incorporation 60 minutes) [mg/kg]
CC[C@H](C)C(=O)O[C@H]1C[C@@H](C)C=C2C=C[C@H](C)[C@H](CC[C@@H]3C[C@@H](O)CC(=O)O3)[C@H]21 [Mevinolin (Lovastatin), reference compound]	–	46 ± 26	0.04	–	–
CCOC(=O)C[C@H](O)C[C@H](O)/C=C/C(=C(c1ccc(F)cc1)c1ccc(F)cc1)c1nnnn1C (relative stereo) [Example 11, Ethyl (±)-erythro-9,9-bis(4-fluorophenyl)-3,5-dihydroxy-8-(1-methyl-1H-tetrazol-5-yl)-6,8-nonadienoate]	> 330000	–	–	–	–
